Results from patent US20230322770A1, “SUBSTITUTED HETEROARYL COMPOUNDS USEFUL AS INHIBITORS OF TLR9” (BRISTOL-MYERS SQUIBB COMPANY, priority 2020, published 2023).

How the values were obtained:
[1] = biological target: T1, human TLR7 (Homo sapiens, UniProt Q9NYK1); assay: TLR7 inhibition reporter assay (HEK-Blue cells, SEAP reporter); assay type: cell-based; conditions: HEK-Blue cells overexpressing human TLR7; stimulated with gardiquimod 7.5 μM; SEAP after 22 hour incubation
T1 construct: host or cells: HEK-Blue cells (HEK293-derived reporter line)
T1 sequence (Q9NYK1 27-1049): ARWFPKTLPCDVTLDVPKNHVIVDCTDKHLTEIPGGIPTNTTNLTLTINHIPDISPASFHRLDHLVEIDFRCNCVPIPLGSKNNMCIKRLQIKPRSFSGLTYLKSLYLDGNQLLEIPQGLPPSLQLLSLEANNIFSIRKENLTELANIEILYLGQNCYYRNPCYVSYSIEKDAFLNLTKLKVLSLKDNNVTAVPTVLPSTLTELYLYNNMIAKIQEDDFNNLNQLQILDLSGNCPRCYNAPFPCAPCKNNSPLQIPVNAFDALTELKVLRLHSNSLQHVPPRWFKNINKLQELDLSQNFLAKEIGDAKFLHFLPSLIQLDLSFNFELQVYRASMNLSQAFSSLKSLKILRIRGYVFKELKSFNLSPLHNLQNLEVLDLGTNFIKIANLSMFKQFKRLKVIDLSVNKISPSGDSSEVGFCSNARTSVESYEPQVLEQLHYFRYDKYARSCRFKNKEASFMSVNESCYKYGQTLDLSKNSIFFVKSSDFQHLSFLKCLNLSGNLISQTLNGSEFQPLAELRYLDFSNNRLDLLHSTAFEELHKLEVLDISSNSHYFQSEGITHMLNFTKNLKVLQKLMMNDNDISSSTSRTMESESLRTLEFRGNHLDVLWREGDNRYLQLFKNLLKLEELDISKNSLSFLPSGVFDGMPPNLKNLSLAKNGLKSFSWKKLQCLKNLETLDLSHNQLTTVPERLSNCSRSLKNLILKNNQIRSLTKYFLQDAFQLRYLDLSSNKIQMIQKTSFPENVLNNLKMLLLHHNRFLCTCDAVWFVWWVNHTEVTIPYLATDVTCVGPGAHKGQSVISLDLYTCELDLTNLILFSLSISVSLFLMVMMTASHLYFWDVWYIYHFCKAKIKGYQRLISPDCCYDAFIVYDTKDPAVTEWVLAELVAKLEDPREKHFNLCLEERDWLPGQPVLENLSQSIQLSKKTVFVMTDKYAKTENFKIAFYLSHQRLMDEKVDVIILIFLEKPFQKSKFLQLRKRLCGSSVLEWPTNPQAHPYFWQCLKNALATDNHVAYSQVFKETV
Method: (§1) TLR7/8/9 Inhibition Reporter Assays
(§2) HEK-Blue™-cells (Invivogen) overexpressing human TLR7, TLR8 or TLR9 receptors were used for screening inhibitors of these receptors using an inducible SEAP (secreted embryonic alkaline phosphatase) reporter gene under the control of the IFN-β minimal promoter fused to five NF-κB and AP-1-binding sites. Briefly, cells are seeded into Greiner 384 well plates (15000 cells per well for TLR7, 20,000 for TLR8 and 25,000 for TLR9) and then treated with test compounds in DMSO to yield a final dose response concentration range of 0.05 nM-50 μM. After a 30 minute compound pre-treatment at room temperature, the cells are then stimulated with a TLR7 ligand (gardiquimod at a final concentration of 7.5 μM), TLR8 ligand (R848 at a final concentration of 15.9 μM) or TLR9 ligand (ODN2006 at a final concentration of 5 nM) to activate NF-κB and AP-1 which induce the production of SEAP. After a 22 hour incubation at 37° C., 5% CO2, SEAP levels are determined with the addition of HEK-Blue™ Detection reagent (Invivogen), a cell culture medium that allows for detection of SEAP, according to manufacturer's specifications. The percent inhibition is determined as the % reduction in the HEK-Blue signal present in wells treated with agonist plus DMSO alone compared to wells treated with a known inhibitor.

[2] = biological target: T2, human TLR8 (Homo sapiens, UniProt Q9NR97); assay: TLR8 inhibition reporter assay (HEK-Blue cells, SEAP reporter); assay type: cell-based; conditions: HEK-Blue cells overexpressing human TLR8; stimulated with R848 15.9 μM; SEAP after 22 hour incubation
T2 construct: host or cells: HEK-Blue cells (HEK293-derived reporter line)
T2 sequence (Q9NR97 27-1041): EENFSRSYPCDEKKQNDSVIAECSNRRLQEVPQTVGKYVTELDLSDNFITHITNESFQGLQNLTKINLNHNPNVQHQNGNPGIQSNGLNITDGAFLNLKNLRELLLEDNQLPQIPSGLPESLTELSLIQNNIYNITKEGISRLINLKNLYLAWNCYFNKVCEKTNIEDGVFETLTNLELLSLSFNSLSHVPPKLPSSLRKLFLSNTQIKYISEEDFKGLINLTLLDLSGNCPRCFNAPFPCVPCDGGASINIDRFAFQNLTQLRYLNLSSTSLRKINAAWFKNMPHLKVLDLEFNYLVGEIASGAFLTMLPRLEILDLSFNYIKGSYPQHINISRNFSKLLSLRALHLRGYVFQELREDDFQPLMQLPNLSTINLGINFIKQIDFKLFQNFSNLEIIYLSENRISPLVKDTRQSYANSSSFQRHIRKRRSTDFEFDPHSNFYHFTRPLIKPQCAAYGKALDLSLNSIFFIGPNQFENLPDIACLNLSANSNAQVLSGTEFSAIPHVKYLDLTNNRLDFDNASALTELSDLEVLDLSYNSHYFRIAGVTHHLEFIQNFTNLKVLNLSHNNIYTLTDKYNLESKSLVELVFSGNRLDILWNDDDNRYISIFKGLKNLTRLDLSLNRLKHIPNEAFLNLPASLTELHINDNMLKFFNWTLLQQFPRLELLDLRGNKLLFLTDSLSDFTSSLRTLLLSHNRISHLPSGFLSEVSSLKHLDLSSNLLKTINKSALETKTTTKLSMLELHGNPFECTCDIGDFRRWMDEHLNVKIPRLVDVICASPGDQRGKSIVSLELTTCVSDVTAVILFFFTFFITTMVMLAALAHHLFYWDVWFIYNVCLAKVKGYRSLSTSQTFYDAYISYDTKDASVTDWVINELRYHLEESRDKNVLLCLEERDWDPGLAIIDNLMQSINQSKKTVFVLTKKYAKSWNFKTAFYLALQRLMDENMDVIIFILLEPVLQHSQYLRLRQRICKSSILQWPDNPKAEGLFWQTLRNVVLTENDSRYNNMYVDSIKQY
Method: as §1, §2

| IC50 [1] | IC50 [2] | SMILES |
| --- | --- | --- |
| ≥ 50 µM | 11.2 µM | Cn1c(-c2ccc(S(C)(=O)=O)cc2)cc2ncc(-c3ccc(N4CCN(CC(C)(C)O)CC4)cc3)cc21 [Example 15, 2-methyl-1-(4-(4-(1-methyl-2-(4-(methylsulfonyl)phenyl)-1H-pyrrolo[3,2-b]pyridin-6-yl)phenyl)piperazin-1-yl)propan-2-ol] |
| 15.5 µM | 41.7 µM | COc1ccc(-c2cc3ncc(-c4ccc(N5CCN(C(C)C)CC5)cc4)cc3n2C)cc1F [Example 10, 2-(3-fluoro-4-methoxyphenyl)-6-(4-(4-isopropylpiperazin-1-yl)phenyl)-1-methyl-1H-pyrrolo[3,2-b]pyridine] |
| 3 µM | 3.6 µM | COc1ccc(-c2cc3ncc(-c4ccc(N5CCNCC5)cc4)cc3n2C)cc1OC [Example 13, 2-(3,4-dimethoxyphenyl)-1-methyl-6-(4-(piperazin-1-yl)phenyl)-1H-pyrrolo[3,2-b] pyridine] |
| 7.2 µM | 10.2 µM | COc1ccc(-c2cc3ncc(-c4ccc(C(=O)N5CCN(C(C)C)CC5)cc4)cc3n2C)cc1OC [Example 5, (4-(2-(3,4-Dimethoxyphenyl)-1-methyl-1H-pyrrolo[3,2-b]pyridin-6-yl)phenyl)(4-isopropylpiperazin-1-yl)methanone] |
| 14.4 µM | 5.6 µM | COc1ccc(-c2cc3ncc(-c4ccc(N5CCN(CC6CC6)CC5)cc4)cc3n2C)cc1OC [Example 8, 6-(4-(4-(cyclopropylmethyl)piperazin-1-yl)phenyl)-2-(3,4-dimethoxyphenyl)-1-methyl-1H-pyrrolo[3,2-b]pyridine] |
| 4.7 µM | 8.7 µM | COc1ccc(-c2cc3ncc(-c4ccc(N5CCN(C(C)C)CC5)nc4)cc3n2C)cc1OC [Example 9, 2-(3,4-dimethoxyphenyl)-6-(6-(4-isopropylpiperazin-1-yl)pyridin-3-yl)-1-methyl-1H-pyrrolo[3,2-b]pyridine] |
| 4.8 µM | 1.3 µM | COc1ccc(-c2cc3ncc(-c4ccc(N5CCN(CCC(C)(C)O)CC5)cc4)cc3n2C)cc1OC [Example 12, 4-(4-(4-(2-(3,4-dimethoxyphenyl)-1-methyl-1H-pyrrolo[3,2-b]pyridin-6-yl)phenyl)piperazin-1-yl)-2-methylbutan-2-ol] |
| 1.9 µM | > 50 µM | CC(C)N1CCN(c2ccc(-c3cnc4cc(-c5ccc(S(C)(=O)=O)cc5)[nH]c4c3)cc2)CC1 [Example 11, 6-(4-(4-isopropylpiperazin-1-yl)phenyl)-2-(4-(methylsulfonyl)phenyl)-1H-pyrrolo[3,2-b]pyridine] |
| 29.6 µM | > 50 µM | CC(C)CN1CCN(c2ccc(-c3cnc4cc(-c5ccc(S(C)(=O)=O)cc5)[nH]c4c3)cc2)CC1 [Example 14, 6-(4-(4-isobutylpiperazin-1-yl)phenyl)-2-(4-(methylsulfonyl)phenyl)-1H-pyrrolo[3,2-b]pyridine] |
| 8.7 µM | 4.7 µM | Cn1c(-c2ccc(S(C)(=O)=O)cc2)cc2ncc(-c3ccc(N4CCN(CCC(C)(C)O)CC4)cc3)cc21 [Example 16, -methyl-4-(4-(4-(1-methyl-2-(4-(methylsulfonyl)phenyl)-1H-pyrrolo[3,2-b]pyridin-6-yl)phenyl)piperazin-1-yl)butan-2-ol] |
